Here are results for one compound from PMC7999182, “Interaction of Remdesivir with Clinically Relevant Hepatic Drug Uptake Transporters” (Pharmaceutics, 2021).

This data set addresses T1, OATP1B1*15 (Homo sapiens, UniProt Q9Y6L6, N130D/V174A).
T1 construct: expressed in transfected cells
T1 sequence (Q9Y6L6 1-691 N130D/V174A): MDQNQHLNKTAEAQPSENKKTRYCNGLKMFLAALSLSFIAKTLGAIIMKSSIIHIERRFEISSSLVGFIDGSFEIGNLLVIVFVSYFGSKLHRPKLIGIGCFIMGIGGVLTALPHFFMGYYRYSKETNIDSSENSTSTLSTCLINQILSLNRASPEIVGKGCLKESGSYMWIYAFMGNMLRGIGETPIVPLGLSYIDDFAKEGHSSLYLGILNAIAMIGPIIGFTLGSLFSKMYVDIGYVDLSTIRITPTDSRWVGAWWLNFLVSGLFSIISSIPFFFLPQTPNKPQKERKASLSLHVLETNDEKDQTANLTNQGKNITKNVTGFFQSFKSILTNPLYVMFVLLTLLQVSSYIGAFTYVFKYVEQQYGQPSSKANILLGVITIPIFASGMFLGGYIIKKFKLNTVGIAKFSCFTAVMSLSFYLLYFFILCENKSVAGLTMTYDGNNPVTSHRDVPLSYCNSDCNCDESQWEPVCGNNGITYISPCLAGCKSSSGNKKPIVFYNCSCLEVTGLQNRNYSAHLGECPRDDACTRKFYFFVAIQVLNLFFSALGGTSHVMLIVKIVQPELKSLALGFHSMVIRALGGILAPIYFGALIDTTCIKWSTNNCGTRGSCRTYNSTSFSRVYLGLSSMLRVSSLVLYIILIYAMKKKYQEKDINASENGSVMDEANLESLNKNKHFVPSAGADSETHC
The data set is described as follows: Remdesivir uptake into HEK cells stably expressing OATP1B1*15 vs vector control. The settings on record: 10 min. The class given is in vitro ADME. The source says:
Generation, cultivation and characterization of human embryonic kidney (HEK) cells stably expressing OATP1B1 refseq (=OATP1B1*1a), OATP1B1*1b, OATP1B1*5 and OATP1B1*15 [18], OATP1B3 [19], OATP2B1 [13] and OCT1 [20] have been described previously. OATP1B1 cells were cultivated in minimal essential medium (Life Technologies, Paisley, UK) and OATP1B3, OATP2B1 and OCT1 cells were cultivated in Dulbecco’s modified Eagle medium (Sigma, Darmstadt, Germany). Cultivation media were supplemented with 10% fetal calf serum, 100 U/mL penicillin and 100 µg/mL streptomycin. Cells were grown at 37 °C and 5% CO2. Functionality of the cells was confirmed by measuring uptake of prototypic substrates (see Section 2.3 and supplementary material).
Uptake assays were conducted at 37 °C according to previously described methods. For this, cells were seeded in 24-well plates (320,000 cells/well) and cultured for 2 days. Cells were then incubated for a further 24 h in culture medium with 5 mM butyrate (OATP1B3, OATP2B1, OCT1) or 10 mM butyrate (OATP1B1) to increase protein levels of recombinant transporters. Before the uptake experiments, cells were washed with the respective pre-warmed (37 °C) uptake buffer. The compositions of the uptake buffers were as follows: for OATP1B1, OATP1B3, OATP2B1: 142 mM NaCl, 12.5 mM hydroxyethylpiperazine ethanesulfonic acid, 5 mM KCl, 1 mM KH2PO4, 1.5 mM CaCl2, 1.2 mM MgSO4, 5 mM glucose, pH 7.3; for OCT1: 145 mM NaCl, 5 mM hydroxyethylpiperazine ethanesulfonic acid, 3 mM KCl, 1 mM CaCl2, 0.5 mM MgCl2, 5 mM glucose, pH 7.4. Uptake was initiated by replacing this solution with uptake buffer containing different concentrations of remdesivir as indicated. […]
Remdesivir was determined by UHPLC-MS-MS analysis on an Agilent 1290 infinity UHPLC system coupled to an Agilent 6495B triple quadrupole mass spectrometer (Agilent, Waldbronn, Germany) similar to a recently published method. […]

As for `CCC(CC)COC(=O)[C@H](C)N[P@](=O)(OC[C@H]1O[C@@](C#N)(c2ccc3c(N)ncnn23)[C@H](O)[C@@H]1O)Oc1ccccc1` [Remdesivir], the “Uptake vs vector-transfected control cells” value (0.5 µM remdesivir) is reported as “significantly lower uptake”. Besides, the “Accumulation vs vector-transfected control cells” value runs as follows: (5 µM remdesivir) “moderately higher”; (10 and 50 µM remdesivir) “moderately higher”.
